Laboratory results: paper PMC11277145, “Wrinkle-Improving Effect of Novel Peptide That Binds to Nicotinic Acetylcholine Receptor” (International Journal of Molecular Sciences, 2024)
Where no end group is shown, it is not given here.

What was measured:
[1] = test system: human cornea model (MCTT HCE^TM); assay: Eye irritation test, human cornea model (MCTT HCE); assay type: cell-based; conditions: for Cell survival (%Control): 10 min exposure, 18 h post-culture, WST-1; for Average absorption: mean of N1 and N2; for Absorption (N1): replicate N1, WST-1, 450 nm; for Absorption (N2): replicate N2, WST-1, 450 nm
Procedure: To evaluate the eye irritation potential of the peptide, an in vitro experimental model recognized by the OECD as an alternative animal evaluation method, the human cornea model (MCTT HCE^TM), was used. The experiment was conducted according to the standard experimental method provided by the manufacturer, Biosolution (Seoul, Republic of Korea). First, before the experiment, the color interference of the test material was checked, and to begin the experiment, MCTT HCE^TM was incubated for 22 h at 5% CO2 and 37 °C. Next, 40 μL of the peptide was applied to the top of the MCTT HCE^TM and left to react for 10 min. Afterwards, the peptide was removed using DPBS, and MCTT HCE^TM was transferred to a new medium and cultured for 18 h at 5% CO2 and 37 °C. After the culture was completed, 200 μL/well of WST-1 solution diluted at a ratio of 1:25 was added to a new plate, MCTT HCE^TM was transferred thereon, and 100 μL of WST-1 solution was treated inside.

human skin = assay: Human skin irritation patch test; assay type: in vivo
Procedure: The skin irritation test was conducted at CRA Korea Co., Ltd. in the Republic of Korea, with the approval serial number CRA21-HIPTRP1001. The patch used was the IQ Ultra Chamber (Chemotechnique Diagnostics, Vellinge, Sweden). The human skin primary irritation test was completed, with all 31 subjects participating until the end of the study. The test area for the product was the back (excluding the spinal area). The patch was applied for 24 h and then removed. The first evaluation was conducted 30 min after patch removal while waiting for the transient erythema to disappear due to removal, and the second evaluation was conducted 24 h after patch removal. The irritation criterion used a measurement evaluation method designed by Frosch and Kligman by applying the reading standards of the International Contact Dermatitis Research Group (ICDRG).

nAChR subunit α1 = molecular target: T1, nAChR subunit α1 (Homo sapiens, UniProt P02708); assay: SPR binding affinity to immobilized nAChR subunit α1
T1 construct: purchased MyBioSource MBS963713
T1 sequence (P02708 21-457): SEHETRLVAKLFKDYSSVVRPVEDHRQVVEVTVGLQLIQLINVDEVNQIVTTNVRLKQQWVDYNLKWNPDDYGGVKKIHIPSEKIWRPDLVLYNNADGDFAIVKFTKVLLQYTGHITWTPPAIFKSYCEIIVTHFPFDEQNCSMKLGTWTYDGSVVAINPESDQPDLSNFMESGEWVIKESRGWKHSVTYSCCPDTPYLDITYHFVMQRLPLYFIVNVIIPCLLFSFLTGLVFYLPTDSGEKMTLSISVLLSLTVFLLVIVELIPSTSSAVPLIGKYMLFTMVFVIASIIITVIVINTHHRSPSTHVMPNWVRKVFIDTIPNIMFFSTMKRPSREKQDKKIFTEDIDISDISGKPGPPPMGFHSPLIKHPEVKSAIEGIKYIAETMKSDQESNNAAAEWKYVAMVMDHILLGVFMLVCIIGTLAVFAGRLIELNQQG
Excerpt: The ligand used recombinant human acetylcholine receptor subunit α1, Cat. No. MBS963713 (MyBioSource, San Diego, CA, USA), and SYN®-AKE used dipeptide diaminobutyroyl benzylamide (Cayman Chemical, Ann Arbor, MI, USA). All peptides used in this study were synthesized and supplied by Anygen (Gwangju, Republic of Korea). Phosphate-buffered saline (PBS), Tween 20, polyethylene glycol (weight-averaged molecular weight (MW) = 8000), LB agar, and bovine serum albumin (BSA) were purchased from Sigma-Aldrich (St. Louis, MO, USA). All reagents and cell culture media were purchased from WELGENE (Gyeongsan-si, Republic of Korea). The INCI name for the novel peptide is Palmitoyl Hexapeptide-93. It was synthesized by Incospharm (Daejeon, Republic of Korea), and clinical trials were conducted with a content of 500 ppm (w/v).
The SPR analysis was performed using a BIACORE 3000 (GE healthcare, Chicago, IL, USA). The nAChR subunit α1 was immobilized on a CM5 sensor chip by injecting the protein diluted in PBS (0.2 M phosphate buffer, 0.027 M KCl, 1.37 M NaCl, pH 7.4) at a concentration of 0.35 mg/mL at a flow rate of 5 μL min^−1. After, 5 μM peptide was injected into running buffer (20 mM Tris, pH 7) and its interaction with nAChR subunit α1 was measured at a flow rate of 30 μL min^−1. For kinetic experiments, peptides diluted in running buffer at concentrations ranging from […] to 200, 400, 600, 1000, and 1200 nM were injected at a flow rate of 30 μL min^−1 over the immobilized nAChR subunit α1. The association and dissociation kinetic rate constants (ka and kd) and the equilibrium […], KD, were calculated using BIAevaluation 3.1 software.

dermal fibroblasts = assay: In vitro cell viability (MTT) assay; assay type: cell-based, human; conditions: 24 h
Procedure: (§1) TE671 rhabdomyosarcoma cell line was purchased from Korea Cell Line Bank (Seoul, Republic of Korea). Dermal fibroblasts (Hs68) were purchased from American Type Culture Collection. Cells were cultured in Dulbecco’s Modified Eagle’s medium (DMEM) and medium containing 10% fetal bovine serum (FBS), 1% penicillin-streptomycin at 37 °C, and up to 5% CO2. Human skin keratinocytes (HEKn) were purchased from Thermo Fisher Scientific (Waltham, MA, USA) and cultured using keratinocyte growth medium, keratinocyte-SFM supplemented with epidermal growth factor (EGF) and bovine pituitary extract (BPE) at 37 °C, and up to 5% CO2.
The in vitro cytotoxicity of the novel peptide on cells was assessed using the MTT [(3-(4,5-dimethylthiazol-2-yl)-2,5-diphenyltetrazolium bromide] cell viability assay. Briefly, dermal fibroblasts were cultured in 24-well plates at a density of 1 × 10^5 cells/well for 18 h. After the medium was removed, the sample diluted in FBS-free medium was added and cultured for 24 h. Then, after the medium was removed, MTT solution was added at a concentration of […] and left to react for 3 h. Unreacted MTT was removed, 100 μL of DMSO was added to dissolve the formed reaction product, and the absorbance at 540 nm was measured and evaluated using an ELISA reader.

[2] = test system: muscle nAChR (TE671 cells expressing nAChRs); assay: In vitro intracellular nicotine response assay; assay type: cell-based, human; conditions: 400 μM nicotine; for nicotine response: Fura-2-AM 340/380 nm, positive control, mean of three repeated measurements
Procedure: as §1
TE671 cells were cultured in DMEM and medium containing 10% FBS, 1% penicillin-streptomycin at 37 °C, and up to 5% CO2. An 18 mm coverslip was placed on a 12-well cell culture plate, cultured cells were removed with trypsin, and 1 mL was dispensed into each well to make 2 × 10^4 cells/well, followed by culturing for 4 days. The coverslip with the cultured cells was transferred to a new 12-well plate, mixed with 997 μL of HBSS buffer and 3 μL of Fura-2-AM (Invitrogen, Waltham, MA, USA), and incubated for 15 min. After incubation, the remaining Fura-2-AM was removed by washing three times with HBSS buffer, and 1 mL of HBSS buffer was additionally dispensed. After mounting the coverslip in the chamber (Live Cell Instrument, Namyangju-si, Republic of Korea), 500 μL of HBSS buffer was dispensed, and the peptide and nicotine samples to be tested were adjusted according to the concentration. Then, 10 to 20 cells were selected and captured alternately at 340 nm and 380 nm wavelengths at 500 ms intervals through a fluorescence microscope (DMI3000 B, Leica Microsystems, Wetzlar, Germany). The fluorescence ratio at 340/380 nm was calculated using the LAS X program.

nAChRs = conditions: ref [16]; read-out: IC50 (binds to nAChRs and inhibits the action of ACh); cited from earlier work
Excerpt: Muscle contraction is induced by acetylcholine (ACh), a neurotransmitter released from nerve cells. ACh is released into the space between muscles and nerves when synaptic vesicles fuse with the cell membrane through the action of the SNARE (Soluble N-ethylmaleimide-sensitive factor attachment protein receptor) complex within nerve cells. Released ACh binds to nAChR or muscarinic acetylcholine receptor (mAChR) on the muscle cell surface to induce muscle contraction. Facial wrinkles are formed by muscle contraction through the binding of muscle nAChRs (subtypes α1, β1, δ, γ, and ...

[3] = methyl acetate (no concentration)
[4] = 0.1ppm, 30 min after patch removal, 31 subjects
[5] = 0.1ppm, 24 hours after patch removal, 31 subjects
[6] = 1ppm, 30 min after patch removal, 31 subjects
[7] = 1ppm, 24 hours after patch removal, 31 subjects
[8] = 10ppm, 30 min after patch removal, 31 subjects
[9] = 10ppm, 24 hours after patch removal, 31 subjects
[10] = 100ppm, 30 min after patch removal, 31 subjects
[11] = 100ppm, 24 hours after patch removal, 31 subjects

## COC(C)=O [Methyl acetate, reference compound]
[1]; [3]
  Average absorption, second value: 0.066
  eye irritation judgement (Standard): Irritant
  Cell survival (%Control): 4.70%
  Average absorption: 0.12
  Absorption (N1): 0.102
  Absorption (N2): 0.138

## RRGVRR [Peptide 289]
[1]; 0.1ppm
  Average absorption, second value: 1.469
  Cell survival (%Control): 105.30%
  Average absorption: 1.523
  Absorption (N1): 1.461
  Absorption (N2): 1.585
[1]; 0.1 ppm to 100 ppm, MCTT HCE
  eye irritation: non-irritating
[1]; 1ppm
  Average absorption, second value: 1.553
  Cell survival (%Control): 111.30%
  Average absorption: 1.607
  Absorption (N1): 1.558
  Absorption (N2): 1.656
[1]; 10ppm
  Average absorption, second value: 1.47
  Cell survival (%Control): 105.30%
  Average absorption: 1.524
  Absorption (N1): 1.464
  Absorption (N2): 1.583
[1]; 100ppm
  Average absorption, second value: 1.456
  Cell survival (%Control): 104.30%
  Average absorption: 1.51
  Absorption (N1): 1.563
  Absorption (N2): 1.456
Human skin; 0.1ppm
  skin irritation judgement: No irritation
Human skin; 0.1 ppm to 100 ppm, 24 h patch, back, 31 subjects
  skin reactivity score: 0.0 ± 0.00
Human skin; 0.1 ppm to 100 ppm, Frosch and Kligman and COLIPA criteria, 31 subjects
  skin irritation: non-irritation
Human skin; 0.1ppm, 31 subjects
  Average response (%): 0.0±0.00%
Human skin; [4]
  subjects with 1+ reaction: 0
  subjects with 2+ reaction: 0
  subjects with 3+ reaction: 0
  subjects with ± reaction: 0
Human skin; [5]
  subjects with 1+ reaction: 0
  subjects with 2+ reaction: 0
  subjects with 3+ reaction: 0
  subjects with ± reaction: 0
Human skin; 1ppm
  skin irritation judgement: No irritation
Human skin; 1ppm, 31 subjects
  Average response (%): 0.0±0.00%
Human skin; [6]
  subjects with 1+ reaction: 0
  subjects with 2+ reaction: 0
  subjects with 3+ reaction: 0
  subjects with ± reaction: 0
Human skin; [7]
  subjects with 1+ reaction: 0
  subjects with 2+ reaction: 0
  subjects with 3+ reaction: 0
  subjects with ± reaction: 0
Human skin; 10ppm
  skin irritation judgement: No irritation
Human skin; 10ppm, 31 subjects
  Average response (%): 0.0±0.00%
Human skin; [8]
  subjects with 1+ reaction: 0
  subjects with 2+ reaction: 0
  subjects with 3+ reaction: 0
  subjects with ± reaction: 0
Human skin; [9]
  subjects with 1+ reaction: 0
  subjects with 2+ reaction: 0
  subjects with 3+ reaction: 0
  subjects with ± reaction: 0
Human skin; 100ppm
  skin irritation judgement: No irritation
Human skin; 100ppm, 31 subjects
  Average response (%): 0.0±0.00%
Human skin; [10]
  subjects with 1+ reaction: 0
  subjects with 2+ reaction: 0
  subjects with 3+ reaction: 0
  subjects with ± reaction: 0
Human skin; [11]
  subjects with 1+ reaction: 0
  subjects with 2+ reaction: 0
  subjects with 3+ reaction: 0
  subjects with ± reaction: 0
nAChR subunit α1; SPR, 200-1200 nM, 20 mM Tris pH 7, 30 μL/min, read-out: ka
  kon: 14900 M⁻¹ s⁻¹
nAChR subunit α1; binding affinity to nAChR subunit α1, bound given in abstract, SPR
  Kd: < 1000 nM
nAChR subunit α1; equilibrium dissociation constant (KD), SPR, 200-1200 nM, 20 mM Tris pH 7, BIAevaluation 3.1
  Kd: 609 nM
nAChR subunit α1; pH 7, read-out: dissociation rate constant (kd)
  koff: 0.00906 s⁻¹
Dermal fibroblasts; 0.1 ppm to 100 ppm, dermal fibroblasts, 540 nm
  cytotoxicity: no toxicity
Dermal fibroblasts; up to 100 μg/mL, fibroblasts
  cytotoxicity: non-cytotoxic

## dipeptide diaminobutyroyl benzylamide [SYN®-AKE]
[2]; 100 μM
  nicotine response: 98%
[2]; 250 μM
  nicotine response: 52.5%
[2]
  concentration required to inhibit the nicotinic response: 500 µM
[2]; 500 μM
  nicotine response: 3.5%
nAChRs
  IC50: 180000 nM
